Where two headings read alike, the source gives them in different places.
Experiments:
[1] = cited from earlier work
Raji cells [2] = assay: Number of dead cells by propidium iodide staining, flow cytometry; assay type: cell-based, human; conditions: 48 hours, Fig. 2; for propidium iodide-positive cells (dead cells): compound alone (L-ASC 100 µM)
Procedure: Raji cells were grown in RPMI medium supplemented with 10% fetal bovine serum and antibiotic/antimycotic solution. […] Cytostatic/cytotoxic effects of treatment were assessed by:
(b) Quantitation of the number of dead cells with propidium iodide staining using flow cytometry
100 µl of cells were mixed with 100 µl of propidium iodide solution (4 µg/ml in PBS) and the number of propidium iodide-positive cells (dead cells) was assessed using flow cytometer Accuri C6.

[3] = test system: normal B cells isolated from human tonsils; assay: Non-viable cells by propidium iodide staining in normal B cells; assay type: cell-based; conditions: TXNR inhibitor in combination with L-ASC, 48 hours, three healthy donors, Fig. 5
Procedure: Human tonsils were derived from subjects undergoing tonsillectomy. After resection, tonsils were cut into small pieces and incubated in the RPMI medium supplemented with collagenase and DNase for 30 min at 37 °C with gentle shaking and filtered through 70 µm cell strainer. After washing in PBS, mononuclear cells were isolated with Histopaque 1077 density gradient and subjected to CD19 negative selection using EasySep™ Human B Cell Enrichment Kit ([…] Technologies). The purity of isolated B cells exceeded 95%. Subsequently, B cells were suspended in RPMI medium supplemented with 10% fetal bovine serum and antibiotic/antimycotic solution, and incubated with L-ASC, SK053, AUR, exactly as Raji cells (described in Example 1). After 48 hours of incubation, the number of non-viable cells was determined by flow cytometry, as the fraction of propidium iodide positive cells. […] This experiment was repeated in three different healthy donors.

Raji cells [4] = assay: MTT assay, cytostatic/cytotoxic effects; assay type: cell-based, human; conditions: 48 hours, Fig. 1
Procedure: Raji cells were grown in RPMI medium supplemented with 10% fetal bovine serum and antibiotic/antimycotic solution. Raji cells were incubated for 15 min at 37 °C with 100 µM or 200 µM L-ASC and then TXNR inhibitors, SK053 or AUR, were added and the cells were cultured for additional 48 hours. Cytostatic/cytotoxic effects of treatment were assessed by:
(a) MTT (3-[4,5-dimethylthiazol-2-yl]-2,5-diphenyltetrazolium bromide) assay
20 µl of MTT (5mg/ml in PBS) was added to 100 µl of cells and maintained in cell culture conditions. After 2 hours, 100 µl of solubilization buffer (10% SDS, 0,01N HCl) was added to each well and plates were maintained in a cell culture incubator overnight. The absorbance was measured at 560 nm using a microplate reader (ASYS UVM 340, Biochrom). The relative viability was calculated according to the following formula: % viability = [(Am - Ab)/(Ac - Ab)] × 100%, where Am is the measured absorbance, Ab is the background absorbance, and Ac is the absorbance of vehiculum-treated controls (DMSO).

adult rats = conditions: cited from earlier work
adult mice = conditions: cited from earlier work
Raji cells [5] = assay: Intracellular ROS level, CM-H2-DCFDA fluorescent probe, flow cytometry; assay type: cell-based, human
Procedure: The level of intracellular ROS in Raji cells treated with L-ASC and SK053 alone or in combination was evaluated. Raji cells were loaded with CM-H2-DCFDA fluorescent probe (Molecular Probes) according to the manufacturer's protocol, using 1 µM dye concentration for 30 min. at 37 °C. […] After 8 hours cells were harvested in PBS and the intensity of green fluorescence was analyzed by flow cytometry (Accuri C6).

[6] = cited from earlier work; remark: listed apart in the source
advanced cancers = conditions: patients with advanced cancers, L-ASC-treated subjects; cited from earlier work
lymphoma cells = lymphoma cells in vitro; cited from earlier work
Raji cells [7] = assay: Comparison of ascorbate stereoisomers and oxidized form combined with TXNR inhibitors (Fig. 3); assay type: cell-based, human; conditions: ascorbate form combined with SK053 or AUR

Q: For CC(=O)OC[C@H]1O[C@@H]([S-])[C@H](OC(C)=O)[C@@H](OC(C)=O)[C@@H]1OC(C)=O.CCP(CC)CC.[Au+] [AUR, (2,3,4,6-tetra-O-acetyl-1-thio-β-D-glucopyranosato-S-) (triethyl-phosphine) gold complex], which labelled gold excreted ([1]; by day 10, total) is on record?
A: The labelled gold excreted was 77%.

Q: And the “labelled gold excreted with feces” value ([1]; by day 10)?
A: Its value is 73%.

Q: What about the “labelled gold excreted with urine” value ([1]; by day 10) of the same compound?
A: Its value is 4%.

Q: What about the “AUR gold bound to red blood cells” value ([1]; in blood) of the same compound?
A: The value was “approximately 40%”.

Q: What about the “AUR gold bound to serum proteins” value ([1]; in blood) of the same compound?
A: The value was 60%.

Q: What about the oral dose absorbed ([1]; oral, radiolabelled AUR) of the same compound?
A: The oral dose absorbed was “approximately 25%”.

Q: And the peak plasma concentrations ([1]; oral, radiolabelled AUR)?
A: Its peak plasma concentrations is 0.3 to 0.4 µM.

Q: What about the “time to reach peak plasma concentrations” value ([1]; oral, radiolabelled AUR) of the same compound?
A: The value was 1 to 2 h.

Q: And the mean plasma half-life ([1]; radiolabelled AUR)?
A: The mean plasma half-life was 17 days.

Q: And the “labelled gold retained in the body” value ([1]; six months after a single dose)?
A: Its value is 0,4%.

Q: And the dead cells (Raji cells [2]; TXNR inhibitor in combination with 100 µM L-ASC)?
A: Its dead cells is roughly 100%.

Q: And the “propidium iodide-positive cells (dead cells)” value (Raji cells [2])?
A: The value was less than 10%.

Q: And the “synergistic cytotoxic effect with L-ASC, fraction of propidium iodide positive cells” value [3]?
A: The value was “synergistic cytotoxic effect between none of the TXNR inhibitors and L-ASC was observed”.

Q: What about the “cytostatic/cytotoxic effects of TXNR inhibitor in combination with L-ASC” value (Raji cells [4]; in combination with 100 µM or 200 µM L-ASC) of the same compound?
A: The value was “remarkably increased the cytostatic/cytotoxic effects”.

Q: What about the “acute oral LD50” value (adult rats; adult rats, oral) of the same compound?
A: Its value is 265 mg/kg.

Q: What about the minimum lethal dose (adult rats; rats) of the same compound?
A: Its minimum lethal dose is 30 mg/kg.

Q: What about the “acute oral LD50” value (adult mice) of the same compound?
A: The value was 310 mg/kg.

Q: With O=C1O[C@H]([C@@H](O)CO)C(O)=C1O [L-ASC, L-ascorbate] as the compound, how does the “ROS levels in the presence of catalase” value (Raji cells [5]; compound alone, with 100 µg/ml catalase, Fig. 4B) read?
A: Its value is “at the control levels”.

Q: And the ROS levels (Raji cells [5]; compound alone: 100 µM ASC or 20 µM SK053, 8 hours, Fig. 4A)?
A: The ROS levels was “only slightly increased ROS levels”.

Q: What about the plasma concentration ([6]; high oral doses) of the same compound?
A: The plasma concentration was “approximately 220 µM”.

Q: And the L-ASC plasma concentrations ([6]; intravenous (i.v.) delivery)?
A: The L-ASC plasma concentrations was “up to 20 mM”.

Q: What about the L-ASC plasma concentrations ([6]; oral administration, maximal) of the same compound?
A: The L-ASC plasma concentrations was no more than 300 µM.

Q: What about the peak plasma concentrations ([6]; slow i.v. infusion of high doses) of the same compound?
A: Its peak plasma concentrations is “over 10 mM”.

Q: What about the “propidium iodide-positive cells (dead cells)” value (Raji cells [2]) of the same compound?
A: The value was less than 10%.

Q: And the “increased mean survival time (MST)” value (advanced cancers)?
A: The value was “over 4 fold”.

Q: What about the “viability of Raji cells” value (Raji cells [4]; L-ASC alone at 100 µM and 200 µM) of the same compound?
A: The value was “did not affect the viability”.

Q: What about the LD50 (lymphoma cells) of the same compound?
A: The LD50 was ~0,5 mM.

Q: With O=C1O[C@H]([C@@H](O)CO)C(=O)C1=O [L-DHA, dehydroascorbic acid] as the compound, how does the “interaction with TXNR inhibitors (SK053, AUR), cytotoxicity to Raji cells” value (Raji cells [7]) read?
A: The value was “had no impact on cytotoxicity”.

Source: patent EP3181118B1, “SYNERGISTIC COMBINATION OF TXNR INHIBITORS AND ASCORBATE FOR TREATMENT OF B CELL MALIGNANCIES” (Warszawski Uniwersytet Medyczny, priority 2015, dated 2017)
